Tested on: TPM3-NTRK1-wt IC50 / primary target (e.g. CD74-ROS1-wt) IC50, Ba/F3 cells
Assay: Cell assay TRKA selectivity (TRKA potency divided by primary target potency)
Type: cell-based
Conditions: for TPM3-NTRK1-wt/CD74-ROS1-G2032R: TRKA selectivity ratio: TPM3-NTRK1-wt IC50 / CD74-ROS1-G2032R IC50, Ba/F3 cells; for TPM3-NTRK1-wt/CD74-ROS1-wt: TRKA selectivity ratio: TPM3-NTRK1-wt IC50 / CD74-ROS1-wt IC50, Ba/F3 cells; for TPM3-NTRK1-wt/EML4-ALK-L1196M-G1202R: TRKA selectivity ratio: TPM3-NTRK1-wt IC50 / EML4-ALK-L1196M-G1202R IC50, Ba/F3 cells; for TPM3-NTRK1-wt/EML4-ALK-wt: TRKA selectivity ratio: TPM3-NTRK1-wt IC50 / EML4-ALK-wt IC50, Ba/F3 cells
How it was run: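 IL-3-independent Ba/F3 lines stably expressing TPM3-TRKA or the primary fusion (e.g. CD74-ROS1 wt) were exposed to 3-fold compound dilutions for 72 h. Viability was read by CellTiter-Glo luminescence, with IC50 from four-parameter logistic fit. Selectivity is TPM3-NTRK1 IC50 divided by primary-target IC50, binned A (>30-fold) to D (<1).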

Row | Compound | TPM3-NTRK1-wt/CD74-ROS1-G2032R | TPM3-NTRK1-wt/CD74-ROS1-wt | TPM3-NTRK1-wt/EML4-ALK-L1196M-G1202R | TPM3-NTRK1-wt/EML4-ALK-wt
1 | CCc1noc2c1-c1cnc(N)c(n1)O[C@H](C)c1cc(F)ccc1-c1nn(C)cc1C2 [Example 162, (19R)-3-ethyl-16-fluoro-10,19-dimethyl-5,20-dioxa-4,10,11,23,25-pentaazapentacyclo[19.3.1.0^2,^6.0^8,^12.0^13,^18]pentacosa-1(24),2(6),3,8,11,13,15,17,21(25),22-decaen-22-amine] | B (bin B for high selectivity, ratio>10-fold) | A (bin A for very high selectivity, ratio>30-fold) | C (bin C for moderate selectivity, ratio≥1) | A (bin A for very high selectivity, ratio>30-fold)
2 | CCn1ncc2c1-c1cnc(N)c(n1)OC(C)c1cc(F)ccc1-c1nccn1C2 (stereo not shown) [Example 163, 3-ethyl-16-fluoro-19-methyl-20-oxa-3,4,8,11,23,25-hexaazapentacyclo[19.3.1.0^2,^6.0^8,^12.0^13,^18]pentacosa-1(24),2(6),4,9,11,13,15,17,21(25),22-decaen-22-amine] | A (bin A for very high selectivity, ratio>30-fold) | A (bin A for very high selectivity, ratio>30-fold) | C (bin C for moderate selectivity, ratio≥1) | A (bin A for very high selectivity, ratio>30-fold)
3 | CCn1ncc2c1-c1cnc(N)c(n1)OC(C)c1cc(F)ccc1-c1c(cnn1C)C2 (stereo not shown) [Example 164, 3-ethyl-16-fluoro-11,19-dimethyl-20-oxa-3,4,10,11,23,25-hexaazapentacyclo[19.3.1.0^2,^6.0^8,^12.0^13,^18]pentacosa-1(24),2(6),4,8(12),9,13,15,17,21(25),22-decaen-22-amine] | A (bin A for very high selectivity, ratio>30-fold) | – | C (bin C for moderate selectivity, ratio≥1) | B (bin B for high selectivity, ratio>10-fold)
4 | CCn1ncc2c1-c1ccc(F)cc1C(C)Oc1nc(cnc1N)-c1c(cnn1C)C2 (stereo not shown) [Example 165, 11-ethyl-16-fluoro-3,19-dimethyl-20-oxa-3,4,10,11,23,25-hexaazapentacyclo[19.3.1.0^2,^6.0^8,^12.0^13,^18]pentacosa-1(24),2(6),4,8(12),9,13,15,17,21(25),22-decaen-22-amine] | C (bin C for moderate selectivity, ratio≥1) | B (bin B for high selectivity, ratio>10-fold) | D (bin D for low selectivity, ratio<1) | C (bin C for moderate selectivity, ratio≥1)
5 | CC1Oc2cc(cnc2N)-c2c(n[nH]c2C#N)Cc2cnn(C)c2-c2ccc(F)cc21 (stereo not shown) [Example 168, 22-amino-16-fluoro-11,19-dimethyl-20-oxa-4,5,10,11,23-pentaazapentacyclo[19.3.1.0^2,^6.0^8,^12.0^13,^18]pentacosa-1(24),2,5,8(12),9,13,15,17,21(25),22-decaene-3-carbonitrile] | A (bin A for very high selectivity, ratio>30-fold) | A (bin A for very high selectivity, ratio>30-fold) | B (bin B for high selectivity, ratio>10-fold) | A (bin A for very high selectivity, ratio>30-fold)
6 | C[C@H]1Oc2cc(cnc2N)-c2c(nn(C)c2C#N)Cc2ccnn2-c2ccc(F)cc21 [Example 169, (19R)-22-amino-16-fluoro-4,19-dimethyl-20-oxa-4,5,11,12,23-pentaazapentacyclo[19.3.1.0^2,^6.0^8,^12.0^13,^18]pentacosa-1(24),2,5,8,10,13,15,17,21(25),22-decaene-3-carbonitrile] | C (bin C for moderate selectivity, ratio≥1) | A (bin A for very high selectivity, ratio>30-fold) | D (bin D for low selectivity, ratio<1) | A (bin A for very high selectivity, ratio>30-fold)
7 | CCc1nn(C)c2c1-c1cnc(N)c(c1)O[C@H](C)c1cc(F)ccc1-c1nn(C)cc1C2 [Example 171, (19R)-3-ethyl-16-fluoro-5,10,19-trimethyl-20-oxa-4,5,10,11,23-pentaazapentacyclo[19.3.1.0^2,^6.0^8,^12.0^13,^18]pentacosa-1(24),2(6),3,8,11,13,15,17,21(25),22-decaen-22-amine] | A (bin A for very high selectivity, ratio>30-fold) | A (bin A for very high selectivity, ratio>30-fold) | B (bin B for high selectivity, ratio>10-fold) | A (bin A for very high selectivity, ratio>30-fold)
8 | C[C@H]1Oc2cc(cnc2N)-c2c(CC(F)F)nn(C)c2Cc2cn(C)nc2-c2ccc(F)cc21 [Example 172, (19R)-3-(2,2-difluoroethyl)-16-fluoro-5,10,19-trimethyl-20-oxa-4,5,10,11,23-pentaazapentacyclo[19.3.1.0^2,^6.0^8,^12.0^13,^18]pentacosa-1(24),2(6),3,8,11,13,15,17,21(25),22-decaen-22-amine] | A (bin A for very high selectivity, ratio>30-fold) | A (bin A for very high selectivity, ratio>30-fold) | A (bin A for very high selectivity, ratio>30-fold) | A (bin A for very high selectivity, ratio>30-fold)
9 | CCc1nn(C)c2c1-c1cnc(N)c(c1)O[C@H](C)c1cc(F)ccc1-c1nc(C)sc1C2 [Example 173, (19R)-3-ethyl-16-fluoro-5,10,19-trimethyl-20-oxa-9-thia-4,5,11,23-tetraazapentacyclo[19.3.1.0^2,^6.0^8,^12.0^13,^18]pentacosa-1(24),2(6),3,8(12),10,13,15,17,21(25),22-decaen-22-amine] | A (bin A for very high selectivity, ratio>30-fold) | A (bin A for very high selectivity, ratio>30-fold) | B (bin B for high selectivity, ratio>10-fold) | A (bin A for very high selectivity, ratio>30-fold)
10 | C[C@H]1Oc2cc(cnc2N)-c2c(nn(C)c2C2CCC2)Cc2ccnn2-c2ccc(F)cc21 [Example 174, (19R)-3-cyclobutyl-16-fluoro-4,19-dimethyl-20-oxa-4,5,11,12,23-pentaazapentacyclo[19.3.1.0^2,^6.0^8,^12.0^13,^18]pentacosa-1(24),2,5,8,10,13,15,17,21(25),22-decaen-22-amine] | B (bin B for high selectivity, ratio>10-fold) | A (bin A for very high selectivity, ratio>30-fold) | C (bin C for moderate selectivity, ratio≥1) | A (bin A for very high selectivity, ratio>30-fold)
11 | CCc1nn(C)c2c1-c1cnc(N)c(c1)OCc1cc(F)ccc1-c1nc(C)sc1C2 [Example 175, 3-ethyl-16-fluoro-5,10-dimethyl-20-oxa-9-thia-4,5,11,23-tetraazapentacyclo[19.3.1.0^2,^6.0^8,^12.0^13,^18]pentacosa-1(24),2(6),3,8(12),10,13,15,17,21(25),22-decaen-22-amine] | A (bin A for very high selectivity, ratio>30-fold) | A (bin A for very high selectivity, ratio>30-fold) | B (bin B for high selectivity, ratio>10-fold) | A (bin A for very high selectivity, ratio>30-fold)

Source: patent publication US11667649B2, “Heteroaromatic macrocyclic ether chemotherapeutic agents” (Nuvalent, Inc., priority 2020, dated 2023)
